Assay results published in the NIST ThermoML archive (doi:10.1016/j.jct.2016.09.041).

Assay: molar heat capacity at constant pressure
Conditions: 101.33 kPa, Crystal, Small (less than 1 g) adiabatic calorimetry

N[C@@H](Cc1c[nH]c2ccccc12)C(=O)O [L-tryptophan]
Conditions	molar heat capacity at constant pressure [J/K/mol]
5 K	0.6568
7.14 K	1.912
7.31 K	2.029
7.49 K	2.253
7.66 K	2.22
7.83 K	2.345
8.01 K	2.511
8.17 K	2.719
8.33 K	2.893
8.49 K	3.026
8.64 K	3.118
8.8 K	3.193
8.95 K	3.5
9.1 K	3.492
9.25 K	3.783
9.39 K	4.024
9.54 K	4.041
9.69 K	4.141
9.83 K	4.34
9.98 K	4.506
10 K	4.49
10.17 K	4.656
10.41 K	4.889
10.66 K	5.08
10.9 K	5.363
11.14 K	5.712
11.39 K	5.978
11.63 K	6.153
11.88 K	6.419
12.12 K	6.768
12.37 K	7.009
12.62 K	7.325
12.87 K	7.591
13.12 K	7.874
13.37 K	8.132
13.62 K	8.481
13.87 K	8.697
14.12 K	8.988
14.37 K	9.37
14.63 K	9.612
14.89 K	9.994
15 K	10.06
15.14 K	10.24
15.4 K	10.54
15.65 K	10.85
15.91 K	11.26
16.17 K	11.59
16.42 K	11.93
16.68 K	12.31
16.94 K	12.6
17.2 K	12.88
17.46 K	13.23
17.72 K	13.64
17.98 K	13.93
18.24 K	14.28
18.5 K	14.56
18.77 K	14.98
19.04 K	15.27
19.3 K	15.67
19.56 K	16.11
19.82 K	16.35
20 K	16.55
20.09 K	16.75
20.64 K	17.32
21.4 K	18.33
22.16 K	19.27
22.93 K	20.25
23.7 K	21.21
24.47 K	22.27
25 K	22.95
25.24 K	23.36
26.01 K	24.35
26.79 K	25.26
27.56 K	26.17
28.34 K	27.19
29.12 K	28.15
29.9 K	29.13
30 K	29.35
30.69 K	30.2
31.47 K	31.22
32.25 K	32.16
33.04 K	33.14
33.83 K	34.04
34.62 K	34.9
35 K	35.34
35.41 K	35.81
36.19 K	36.73
36.98 K	37.56
37.77 K	38.4
38.56 K	39.29
39.36 K	40.19
40 K	40.82
40.15 K	40.92
40.94 K	41.77
41.73 K	42.6
42.53 K	43.43
43.32 K	44.32
44.11 K	45.14
44.91 K	45.95
45 K	45.9
45.71 K	46.69
46.51 K	47.37
47.31 K	48.09
48.11 K	48.71
48.9 K	49.39
49.7 K	50.03
50 K	50.55
50.5 K	50.81
51.3 K	51.51
52.1 K	52.37
52.9 K	53.35
53.7 K	54.34
54.5 K	55.43
55.3 K	55.65
56.1 K	56.39
56.9 K	57.23
57.7 K	57.95
58.51 K	58.68
59.31 K	59.42
60 K	60.03
60.12 K	60.15
60.92 K	60.88
61.73 K	61.6
62.52 K	62.33
63.32 K	63.58
64.13 K	64.21
64.93 K	64.88
